Where a name gives a salt, the structure may show the parent alone. Read-outs that look alike come from different tables or passages of the source.
What was measured:
[1] = Stability of hydrogen maleate salt versus free base; type: physicochemical
[2] = type: in vivo, rats; conditions: for ED50: i.v.
Protocol: These experiments were carried out on rats (with a body weight of 180-200 g) anaesthetized by urethane (1.25 g/kg i.p.) in such a way that 50 μg/kg of aconitine [chemically acetyl benzoyl aconine] was injected to the tail vein then, the arrhythmic disturbances were observed on ERG II lead after 5 minutes [J. Med. Exp. 10, 93 (1964)].
The compounds to be tested for antiarrhythmic effect were intravenously (i.v.) administered 2 minutes, or orally one hour before aconitine.
The aconitine arrhythmia was evaluated in such a manner that the severity of arrhythmia was characterized by an increasing number and, after average calculation both in the control as well as in the tested group, the average of treated group was expressed as percentage of the control. The arrhythmia was characterized by the following scores: […]

[3] = Electroshock (ECS) induced retrograde amnesia, passive avoidance test; type: in vivo, NMRI mice; conditions: for Prevention %: 2 hours after learning
Source text: (§1) The biological activity of the compounds of formulas (I) and (Ia) was studied by using passive avoidance test. This test is one of the most widely used animal experimental model for investigating the effects of substances on the cognitive functions (learning and memory processes). This is based on inhibition of the genetically determined behavior of rodents (mice and rats) that they prefer dark space to light one. A single electric shock given in the dark box is employed as a memory trace, the retention and retrieval of which can be controlled after a shorter or longer period.
In this test, the retrograde amnesia was induced on NMRI mice having a body weight of 24-26 g by using an auricular electroshock treatment of 20 mA for 0.2 s at one hour following the learning. The compounds to be tested were administered 2 hours after learning. The protective effect was calculated as percentage value (p%D) by using the following formula: [formula]
P%=Ttreated+ECS -Tplacebo+ECS /Tplacebo -Tplacebo+ECS
(§2) In the above formula, T means the measured retention time of animals treated as shown in the index or the measured retention time of untreated animals, respectively.

[4] = Diazepam (DIA) induced anterograde amnesia, passive avoidance test; type: in vivo, NMRI mice; conditions: for inhibition in vivo at 0.1 mg/kg / inhibition in vivo at 10 mg/kg: Mus musculus, po, 1 h, read-out: Prevention %; for significantly antagonized the amnesic effect of diazepam (percentage): Table 1, p.o.; for antiamnesic effect (overall): overall conclusion from the amnesia tests; for protection against the amnesic effect of diazepam, lower versus higher dose: 0.1 mg/kg and 10 mg/kg p.o.
Source text: as §1
The passive avoidance test was carried out on NMRI mice with a body weight of 25-28 g. During the learning, preselected animals (mice entering into a dark space from an illuminated space within 30 s) were placed into an illuminated space. After entering into the dark space, the animal received within 30 s onto his paw an electric shock (1 mA for 3 s) causing an unpleasant sensation. The time of entry into the dark space (latency period) was measured. During the check, after 24 hours, the animals were again put back to the illuminated space and the time elapsed until entry into the dark space (retention time) was measured (limit time=300 s). The animals were intraperitoneally (i.p.) treated with 3 mg/kg of diazepam (chemically, 7-chloro-1,3-dihydro-1-methyl-5-phenyl-2H-1,4-benzodiazepin-2-one) 30 minutes before learning in order to induce anterograde amnesia. The compounds were orally (p.o.) administered in doses of 0.1 or 10 mg/kg, respectively one hour before the learning. The protective effect was calculated percentage value (P%) by using the following formula: [formula]
as §2

[5] = Normobaric hypoxia-induced memory deficiency model on rats; type: in vivo; conditions: 10 mg/kg oral
Protocol: (§3) Compound 4610351 has been investigated in detail both under in vitro and in vivo conditions. This compound evened 36% protection in an oral dose of 10 mg/kg in the normobaric hypoxia-induced memory deficiency model on rats; this surpassed the protective effect of 21% provided by 10 mg/kg oral dose of vinpocetine. […] On the basis of these investigations, compounds of formulas (I) and (Ia) can be utilized for the treatment of diseases and dementias accompanied by the impairment of cognitive processes (learning, memory), such as multiinfarct and Alzeimer type dementias, states following stroke, ischaemic injuries, sequels of trauma of the central nervous system, parkinsonism, Huntington's chorea or multiple sclerosis. The therapeutical doses of compounds of formulas (I) and (Ia) can range between 0.1 and 40 mg/kg of body weight given orally, daily once or several times.

[6] = system: neuronal calcium uptake (K^+ -induced); experiment: K+ -induced 45Ca uptake by synaptosome preparation; type: biochemical
Protocol: as §3

[7] = system: neuronal calcium uptake (veratrine-induced); experiment: Veratrine-induced 45Ca uptake by synaptosome preparation; type: biochemical
Protocol: as §3

[8] = 10 mg/kg p.o., * marks significance
[9] = 30 mg/kg p.o., one hour before aconitine
[10] = 0.1 mg/kg p.o., one hour before learning, diazepam 3 mg/kg i.p., * = p < 0.05 vs diazepam control
[11] = 10 mg/kg p.o., one hour before learning, diazepam 3 mg/kg i.p., * = p < 0.05 vs diazepam control

O=C1CC2(CCN(Cc3ccccc3)CC2)Oc2ccccc21
stability over the free base form [1]: higher stability

CCCCc1oc2ccccc2c1C(=O)c1cc(I)c(OCCN(CC)CC)c(I)c1 [Amiodarone]
Inhibition (%) ([2]; 3.0 mg/kg i.v.): 13%
Inhibition (%) ([2]; 5.0 mg/kg i.v.): 29%
Inhibition (%) ([2]; 10 mg/kg i.v.): 70%
ED50 [2]: 7.04 mg/kg

CCN1C[C@H]2CN(C)C[C@@H](C1)C2OC(=O)c1ccc(Cl)cc1 (stereo partly drawn) [Bisaramil, 3-methyl-7-ethyl-9α-(4-chlorobenzoyloxy)-3,7-diazabicyclo[3.3.1]nonane hydrochloride]
Inhibition (%) ([2]; 0.3 mg/kg i.v.): 20%
Inhibition (%) ([2]; 0.5 mg/kg i.v.): 48%
Inhibition (%) ([2]; 1.0 mg/kg i.v.): 91%
ED50 [2]: 0.49 mg/kg

O=C1CC2(CCN(Cc3ccccc3)CC2)Oc2ccccc21 [Compound 4600592, 1'-Benzylspiro[2H-1-benzopyran-2,4'-piperidine]-4(3H)-one]
Prevention % ([3]; 1 mg/kg p.o.): 48%
Prevention % [3, 8]: 44%
protection in ECS-induced retrograde amnesia ([3]; mouse, in vivo): No considerable protection
Inhibition (%) ([2]; 10 mg/kg i.v.): 3%
Inhibition (%) ([2]; 30 mg/kg i.v.): 19%
Inhibition (%) [2, 9]: 0%
inhibition in vivo at 0.1 mg/kg [4, 10]: 144%
inhibition in vivo at 10 mg/kg [4, 11]: 92%
significantly antagonized the amnesic effect of diazepam (percentage) [4]: 105-176%

O=C1CC2(CCN(Cc3ccc(F)cc3)CC2)Oc2ccccc21 [Compound 4610282]
protection in ECS-induced retrograde amnesia ([3]; 0.1 mg/kg (as printed in text)): 77%
Prevention % ([3]; 1 mg/kg p.o.): 77%
Prevention % [3, 8]: 29%
inhibition in vivo at 0.1 mg/kg [4, 10]: 131%
inhibition in vivo at 10 mg/kg [4, 11]: 24%
significantly antagonized the amnesic effect of diazepam (percentage) [4]: 105-176%
antiamnesic effect (overall) [4]: significant antiamnesic effect

O=C1CC2(CCN(Cc3ccc([N+](=O)[O-])cc3)CC2)Oc2ccccc21 [Compound 4610350]
Prevention % ([3]; 1 mg/kg p.o.): 0%
Prevention % [3, 8]: 8%
antiamnesic action in lower doses ([4]; 0.1 mg/kg p.o.): showed an antiamnesic action
antiamnesic action in higher doses ([4]; 10 mg/kg p.o.): inactive
inhibition in vivo at 0.1 mg/kg [4, 10]: 170%
inhibition in vivo at 10 mg/kg [4, 11]: 29%
significantly antagonized the amnesic effect of diazepam (percentage) [4]: 105-176%
antiamnesic effect (overall) [4]: significant antiamnesic effect

O=C1CC2(CCN(Cc3ccc(Cl)cc3)CC2)Oc2ccccc21 [Compound 4610351]
Prevention % ([3]; 1 mg/kg p.o.): 81%
Prevention % [3, 8]: 108%
reversal of ECS-caused amnesia ([3]; both doses): could significantly reverse the ECS-caused amnesia in both doses
reversal of ECS-caused amnesia ([3]; higher dose): 108%
Inhibition (%) ([2]; 10 mg/kg i.v.): 16%
Inhibition (%) ([2]; 30 mg/kg i.v.): 16%
Inhibition (%) [2, 9]: 5%
protection, normobaric hypoxia-induced memory deficiency [5]: 36%
IC50 [6]: 45.6 µM
inhibition in vivo at 0.1 mg/kg [4, 10]: 78%
inhibition in vivo at 10 mg/kg [4, 11]: 176%
significantly antagonized the amnesic effect of diazepam (percentage) [4]: 105-176%
antiamnesic effect (overall) [4]: significant antiamnesic effect
IC50 [7]: 4.5 µM

O=C1CC2(CCN(Cc3ccc(Br)cc3)CC2)Oc2ccccc21 [Compound 4611109]
antiamnesic action in lower doses ([4]; 0.1 mg/kg p.o.): showed an antiamnesic action
antiamnesic action in higher doses ([4]; 10 mg/kg p.o.): inactive
inhibition in vivo at 0.1 mg/kg [4, 10]: 92%
inhibition in vivo at 10 mg/kg [4, 11]: 0%

O=C1CC2(CC[N+](Cc3ccc([N+](=O)[O-])cc3)(Cc3ccc([N+](=O)[O-])cc3)CC2)Oc2ccccc21 [Compound 4611265]
Inhibition (%) ([2]; 10 mg/kg i.v.): 21%
Inhibition (%) ([2]; 30 mg/kg i.v.): 10%
Inhibition (%) [2, 9]: 0%
protection against the amnesic effect of diazepam, lower versus higher dose [4]: nearly the same protection
inhibition in vivo at 0.1 mg/kg [4]: 86%
inhibition in vivo at 10 mg/kg [4]: 134%
significantly antagonized the amnesic effect of diazepam (percentage) [4]: 105-176%
antiamnesic effect (overall) [4]: significant antiamnesic effect

CC(C)(C)c1ccc(CN2CCC3(CC2)CC(=O)c2ccccc2O3)cc1 [Compound 4611266, 1'-(4-tert-butylbenzyl)-spiro[2H-1-benzopyran-2,4'-piperidine]-4(3H)-one]
Inhibition (%) ([2]; 10 mg/kg i.v.): 21%
Inhibition (%) ([2]; 30 mg/kg i.v.): 3%
Inhibition (%) [2, 9]: 0%
protection against the amnesic effect of diazepam, lower versus higher dose [4]: nearly the same protection
inhibition in vivo at 0.1 mg/kg [4, 10]: 159%
inhibition in vivo at 10 mg/kg [4, 11]: 105%
significantly antagonized the amnesic effect of diazepam (percentage) [4]: 105-176%
antiamnesic effect (overall) [4]: significant antiamnesic effect

O=C1CC2(CC[N+](Cc3ccccc3)(Cc3ccccc3)CC2)Oc2ccccc21 [Compound 4611267, 1',1'-dibenzyl-spiro[2H-4(3H)-oxo-1-benzopyran-2,4'-piperidinium]hydrochloride]
Inhibition (%) ([2]; 10 mg/kg i.v.): 0%
Inhibition (%) ([2]; 30 mg/kg i.v.): 29%
Inhibition (%) [2, 9]: 0%
inhibition in vivo at 0.1 mg/kg [4, 10]: 47%
inhibition in vivo at 10 mg/kg [4, 11]: 67%

Cc1cccc(C)c1OCC(C)N (stereo not shown) [Mexiletine, 1-methyl-2-(2,6-xylyloxy)ethylamine]
Inhibition (%) ([2]; 1.0 mg/kg i.v.): 29%
Inhibition (%) ([2]; 3.0 mg/kg i.v.): 68%
Inhibition (%) ([2]; 10 mg/kg i.v.): 62%
ED50 [2]: 2.51 mg/kg

C=C[C@H]1C[N@@]2CC[C@H]1C[C@@H]2[C@@H](O)c1ccnc2ccc(OC)cc12 [Quinidine, (S)-(6-methoxy-4-quinolinyl)-[(2R.4S.5R)-5-vinyl-2-quinuclidinyl]methanol]
Inhibition (%) ([2]; 0.3 mg/kg i.v.): 34%
Inhibition (%) ([2]; 10 mg/kg i.v.): 55%
Inhibition (%) ([2]; 30 mg/kg i.v.): 83%
ED50 [2]: 6.66 mg/kg

NC(=O)[C@@H]1CCCN1C(=O)[C@H](Cc1c[nH]cn1)NC(=O)[C@@H]1CCC(=O)N1 [TRH, 5-oxo-L-prolyl-L-histidyl-L-proline amide, reference compound]
Prevention % ([3]; 1 mg/kg i.p.): 77%
Prevention % ([3]; 10 mg/kg i.p.): 35%

CCOC(=O)C1=C[C@]2(CC)CCCN3CCc4c(n1c1ccccc41)[C@@H]32 [Vinpocetine, ethyl apovincaminate, reference compound]
protection, normobaric hypoxia-induced memory deficiency [5]: 21%
inhibition in vivo at 0.1 mg/kg [4, 10]: 0%
inhibition in vivo at 10 mg/kg [4, 11]: 123%

From US6140336A, “Spiro[2H-1-benzopyran-2,4'-piperidine]-4(3H)-one derivatives, acid addition salts thereof and pharmaceutical compositions containing them” (Richter Gedeon Vegyeszeti Gyar Rt., priority 1996, dated 2000)
